ChEMBL document CHEMBL2021880, “An Invitation to Open Innovation in Malaria Drug Discovery: 47 Quality Starting Points from the TCAMS” (ACS Med Chem Lett, 2011)

Columns and labels:
Plasmodium falciparum = test: Antimalarial activity against Plasmodium falciparum 3D7 A infected in red blood cells assessed as inhibition of [3H]hypoxanthine incorporation after 24 hrs by scintillation counting; assay type: functional, organism-based
[1] = Clearance in mouse microsomes at 0.5 uM; assay type: ADME, Microsome
[2] = Clearance in human microsomes at 0.5 uM; assay type: ADME, Microsome
[3] = target: Voltage-gated inwardly rectifying potassium channel KCNH2 (Homo sapiens, UniProt Q12809); test: Displacement of Cy3b-dofetilide from human ERG expressed in CHO cells by fluorescence polarization assay
Sequence of Voltage-gated inwardly rectifying potassium channel KCNH2 (Q12809 whole entry): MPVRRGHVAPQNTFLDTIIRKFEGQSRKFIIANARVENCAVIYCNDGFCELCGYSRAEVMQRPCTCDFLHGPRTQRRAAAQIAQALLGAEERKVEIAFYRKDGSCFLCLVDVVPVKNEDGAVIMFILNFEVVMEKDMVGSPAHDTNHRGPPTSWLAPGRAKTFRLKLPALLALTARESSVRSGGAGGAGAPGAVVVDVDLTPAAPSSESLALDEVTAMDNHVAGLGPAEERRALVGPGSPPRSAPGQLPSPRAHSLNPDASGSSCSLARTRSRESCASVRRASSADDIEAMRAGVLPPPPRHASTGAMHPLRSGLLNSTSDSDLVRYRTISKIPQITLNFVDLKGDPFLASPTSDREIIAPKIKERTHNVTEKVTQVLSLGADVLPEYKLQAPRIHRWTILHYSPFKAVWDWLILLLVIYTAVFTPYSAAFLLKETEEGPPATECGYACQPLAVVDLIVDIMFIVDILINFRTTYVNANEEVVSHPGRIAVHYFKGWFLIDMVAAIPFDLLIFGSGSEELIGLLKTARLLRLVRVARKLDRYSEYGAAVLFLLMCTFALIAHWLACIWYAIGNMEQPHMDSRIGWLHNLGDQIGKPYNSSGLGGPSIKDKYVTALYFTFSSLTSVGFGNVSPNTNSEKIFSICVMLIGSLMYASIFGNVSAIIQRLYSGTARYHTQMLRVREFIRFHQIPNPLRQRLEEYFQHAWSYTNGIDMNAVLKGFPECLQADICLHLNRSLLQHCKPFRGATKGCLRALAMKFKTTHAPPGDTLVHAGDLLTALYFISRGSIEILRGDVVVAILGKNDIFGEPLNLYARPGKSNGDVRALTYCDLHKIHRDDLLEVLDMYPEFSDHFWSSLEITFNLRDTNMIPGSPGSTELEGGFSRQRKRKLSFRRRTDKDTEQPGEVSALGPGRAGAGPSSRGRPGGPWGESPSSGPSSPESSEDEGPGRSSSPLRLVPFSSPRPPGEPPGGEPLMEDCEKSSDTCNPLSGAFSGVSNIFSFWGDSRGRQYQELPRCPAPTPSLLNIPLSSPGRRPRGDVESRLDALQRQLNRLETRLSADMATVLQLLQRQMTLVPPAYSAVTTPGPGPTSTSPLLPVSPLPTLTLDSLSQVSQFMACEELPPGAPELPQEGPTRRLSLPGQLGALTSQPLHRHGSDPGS

Molecule `O=C(Nc1cc(C(F)(F)F)ccc1-n1cncn1)C1(c2ccccc2)CC1` has an IC50 (Plasmodium falciparum) of 30 nM, a CL [1] of under 0.8 mL/min/g and a CL [2] of under 0.3 mL/min/g.

Molecule `Cc1cc(C(=O)NC2CCN(CC3(c4ccc(Cl)cc4)CCC3)CC2)on1` has an IC50 (Plasmodium falciparum) of 80 nM, an XC50 (Plasmodium falciparum) of 90 nM and a CL [1] of 5.6 mL/min/g. It also gave a CL [2] of 18.8 mL/min/g.

Work on `CN(C)CCNC(=O)c1cc2c(-c3ccc(Cl)cc3)nn(C)c2s1` yielded an INH [3] of 6.3 µM, an IC50 (Plasmodium falciparum) of 950 nM and a CL [1] of 4 mL/min/g. It also gave a CL [2] of 0.3 mL/min/g.

`CC(C)(C)c1cc(C(=O)N2CCN(c3ncccc3C(F)(F)F)CC2)n(Cc2ccccc2)n1` showed an INH [3] of over 50 µM, an IC50 (Plasmodium falciparum) of 100 nM and a CL [1] of over 30 mL/min/g. For the same molecule, the CL [2] was 12.7 mL/min/g.

In the case of `COc1cc2c(cc1C(F)(F)F)N(C(=O)Nc1cc(OC(F)(F)F)cc(-c3cccnc3)c1)CC2`, the INH [3] is reported as over 15 µM, the IC50 (Plasmodium falciparum) is reported as 80 nM and the XC50 (Plasmodium falciparum) is reported as 40 nM. For the same molecule, the CL [1] was under 0.3 mL/min/g and the CL [2] was under 0.3 mL/min/g.
